biological target: human NaV 1.8 (Homo sapiens, UniProt Q9Y5Y9); assay: E-VIPR assay for detecting and measuring NaV inhibition properties; assay type: cell-based; details: E-VIPR assay conducted in the presence of human serum; HEK cells expressing truncated human NaV 1.8; read-out: IC50
Excerpt: Sodium ion channels are voltage-dependent proteins that can be activated by inducing membrane voltage changes by applying electric fields. The electrical stimulation instrument and methods of use, referred to as E-VIPR, are described in International Publication No. WO 2002/008748 A3 and C.-J. Huang et al. Characterization of voltage-gated sodium channel blockers by electrical stimulation and fluorescence detection of membrane potential, 24 Nature Biotech. 439-46 (2006), both of which are incorporated by reference in their entirety. The instrument comprises a microtiter plate handler, an optical system for exciting the coumarin dye while simultaneously recording the coumarin and oxonol emissions, a waveform generator, a current- or voltage-controlled amplifier, and parallel electrode pairs that are inserted into assay plate wells. Under integrated computer control, this instrument passes user-programmed electrical stimulus protocols to cells within the wells of the microtiter plate.
16-20 hours prior to running the assay on E-VIPR, HEK cells expressing a truncated form of human NaV 1.8 with full channel activity were seeded into microtiter 384-well plates, pre-coated with matrigel, at a density of 25,000 cells per well. 2.5-5% KIR2.1 Bacmam virus was added to the final cell suspension before seeding into cell plates. HEK cells were grown in Dulbecco's Modified Eagle's Medium (DMEM) supplemented with 10% FBS (Fetal Bovine Serum, qualified; Sigma #F4135), 1% NEAA (Non-Essential Amino Acids, Gibco #11140), 1% HEPES (Gibco #15630), 1% Pen-Strep (Penicillin-Streptomycin; Gibco #15140) and 5 μg/ml Blasticidin (Gibco #R210-01). Cells were expanded in vented cap cell culture flasks, with 90-95% humidity and 5% CO2.
Compound Loading Buffer (2× concentration): Na/TMA Cl Bath1 Buffer containing HS (omitted in experiments run in the absence of human serum (HS)) 50%, VABSC-1 1 mM, BSA 0.2 mg/ml (in Bath-1), KCl 9 mM, DMSO 0.75%.
• 1) To reach the final concentration in each well, 400 nL of each compound was pre-spotted (in neat DMSO) into polypropylene compound plates at 250× desired final concentration from an intermediate stock concentration of 0.075 mM, in an 11 point dose response, 3-fold dilution, resulting in a top dose of 300 nM final concentration in the cell plate. Vehicle control (neat DMSO), and positive control (an established NaV1.8 inhibitor, 25 μM final in assay in DMSO) were added manually to the outermost columns of each plate respectively. The compound plate was backfilled with 45 μL per well of Compound Loading Buffer resulting in a 250 fold dilution of compound following a 1:1 transfer of compound into the cell plate (see Step 6). Final DMSO concentration for all wells in the assay was 0.625% (0.75% DMSO was supplemented to the Compound Loading Buffer for a final DMSO concentration of 0.625%). This assay dilution protocol was adjusted to enable a higher dose range to be tested in the presence of HS or if the final assay volume was altered. • 2) Hexyl Dye Solution was prepared. • 3) Cell plates were prepared. On the day of the assay, the media was aspirated, and the cells were washed three times with 80 μL of Bath-1 buffer, maintaining 25 μL residual volume in each well. • 4) 25 μL per well of Hexyl Dye Solution was dispensed into the cell plates. The cells were incubated for 20 minutes at room temperature or ambient conditions in darkness. • 5) 45 μL per well of Compound Loading Buffer was dispensed into compound plates. • 6) The cell plates were washed three times with 80 μL per well of Bath-1 Buffer, leaving 25 µL of residual volume. Then 25 μL per well from compound plate was transferred to each cell plate. The mixture was incubated for 30 minutes at room temperature/ambient conditions. • 7) The cell plate containing compound was read on E-VIPR using the current-controlled amplifier to deliver stimulation wave pulses using a symmetrical biphasic waveform. […]

Chain of human NaV 1.8 (Q9Y5Y9 whole entry, looked up, the tested form may be a part): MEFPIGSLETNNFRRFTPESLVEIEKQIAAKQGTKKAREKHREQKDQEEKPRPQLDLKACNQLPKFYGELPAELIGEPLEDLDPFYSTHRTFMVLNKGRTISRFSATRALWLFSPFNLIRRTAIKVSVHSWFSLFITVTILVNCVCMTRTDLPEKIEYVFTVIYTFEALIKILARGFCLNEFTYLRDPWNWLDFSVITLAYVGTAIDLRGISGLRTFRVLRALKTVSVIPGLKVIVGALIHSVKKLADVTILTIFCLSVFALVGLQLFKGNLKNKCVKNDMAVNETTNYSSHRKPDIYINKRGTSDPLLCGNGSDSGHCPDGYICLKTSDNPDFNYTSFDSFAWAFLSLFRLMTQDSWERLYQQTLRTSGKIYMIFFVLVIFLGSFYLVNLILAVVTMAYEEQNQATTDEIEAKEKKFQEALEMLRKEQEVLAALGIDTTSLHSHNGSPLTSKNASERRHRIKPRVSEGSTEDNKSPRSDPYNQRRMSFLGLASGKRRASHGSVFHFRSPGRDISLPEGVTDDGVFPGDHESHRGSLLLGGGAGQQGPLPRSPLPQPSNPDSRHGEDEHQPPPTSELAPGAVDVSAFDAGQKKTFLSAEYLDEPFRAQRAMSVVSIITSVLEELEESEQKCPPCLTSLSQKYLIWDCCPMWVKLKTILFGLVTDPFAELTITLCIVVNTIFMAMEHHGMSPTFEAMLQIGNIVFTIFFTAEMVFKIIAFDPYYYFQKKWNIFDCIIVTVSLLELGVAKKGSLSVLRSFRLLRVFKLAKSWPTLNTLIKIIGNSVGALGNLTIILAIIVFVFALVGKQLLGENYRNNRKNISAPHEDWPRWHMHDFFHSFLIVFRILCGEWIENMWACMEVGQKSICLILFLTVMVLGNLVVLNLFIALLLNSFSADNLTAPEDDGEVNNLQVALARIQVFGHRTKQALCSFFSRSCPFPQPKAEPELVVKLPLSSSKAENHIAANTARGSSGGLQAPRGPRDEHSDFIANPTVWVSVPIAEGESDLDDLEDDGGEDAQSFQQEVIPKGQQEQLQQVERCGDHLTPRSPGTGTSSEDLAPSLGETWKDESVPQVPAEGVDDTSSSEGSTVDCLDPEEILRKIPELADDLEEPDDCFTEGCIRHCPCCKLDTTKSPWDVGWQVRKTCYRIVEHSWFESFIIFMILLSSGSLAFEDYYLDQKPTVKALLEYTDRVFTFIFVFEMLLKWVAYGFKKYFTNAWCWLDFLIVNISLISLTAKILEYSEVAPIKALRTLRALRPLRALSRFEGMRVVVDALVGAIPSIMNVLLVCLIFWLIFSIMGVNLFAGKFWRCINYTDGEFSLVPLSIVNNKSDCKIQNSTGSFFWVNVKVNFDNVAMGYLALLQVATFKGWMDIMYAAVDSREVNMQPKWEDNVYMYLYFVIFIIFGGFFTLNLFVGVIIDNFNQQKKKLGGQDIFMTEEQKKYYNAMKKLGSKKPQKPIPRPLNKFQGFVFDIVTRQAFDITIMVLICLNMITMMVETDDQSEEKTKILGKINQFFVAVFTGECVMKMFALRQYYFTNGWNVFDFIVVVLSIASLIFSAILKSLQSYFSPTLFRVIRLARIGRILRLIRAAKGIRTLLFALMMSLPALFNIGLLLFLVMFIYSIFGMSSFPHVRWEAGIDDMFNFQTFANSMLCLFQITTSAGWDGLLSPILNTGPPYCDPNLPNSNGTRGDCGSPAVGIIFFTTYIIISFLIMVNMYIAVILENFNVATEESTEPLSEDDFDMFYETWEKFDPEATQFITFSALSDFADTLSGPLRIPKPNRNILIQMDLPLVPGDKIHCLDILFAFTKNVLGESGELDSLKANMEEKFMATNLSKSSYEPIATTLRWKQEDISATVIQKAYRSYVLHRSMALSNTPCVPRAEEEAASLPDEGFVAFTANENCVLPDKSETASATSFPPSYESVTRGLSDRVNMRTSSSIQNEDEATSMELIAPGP

Row | SMILES | IC50
1 | NC(=O)c1cc(NC(=O)c2cc(C(F)(F)F)ccc2Oc2cccc(C3CCCCC3)c2)ccn1 [Compound 14, 4-[[2-(3-cyclohexylphenoxy)-5-(trifluoromethyl)benzoyl]amino]pyridine-2-carboxamide] | > 3 µM
2 | COc1ccc(Cl)cc1Oc1ccc(C(F)(F)F)cc1C(=O)Nc1ccnc(C(N)=O)c1 [Compound 15, 4-[[2-(5-chloro-2-methoxy-phenoxy)-5-(trifluoromethyl)benzoyl]amino]pyridine-2-carboxamide] | > 3 µM
3 | COc1cc(Oc2ccc(C(F)(F)F)cc2C(=O)Nc2ccnc(C(N)=O)c2)ccc1F [Compound 16, 4-[[2-(4-fluoro-3-methoxy-phenoxy)-5-(trifluoromethyl)benzoyl]amino]pyridine-2-carboxamide] | > 3 µM
4 | NC(=O)c1cc(NC(=O)c2cc(C(F)(F)F)ccc2Oc2ccc(F)cc2F)ccn1 [Compound 17, 4-[[2-(2,4-difluorophenoxy)-5-(trifluoromethyl)benzoyl]amino]pyridine-2-carboxamide] | > 3 µM
5 | CC(C)Oc1ccc(Oc2ccc(C(F)(F)F)c(F)c2C(=O)Nc2ccnc(C(N)=O)c2)c(F)c1F [Compound 18, 4-[[6-(2,3-difluoro-4-isopropoxy-phenoxy)-2-fluoro-3-(trifluoromethyl)benzoyl]amino]pyridine-2-carboxamide] | 0.019 µM
6 | CCOc1ccc(Oc2ccc(C(F)(F)F)c(F)c2C(=O)Nc2ccnc(C(N)=O)c2)c(F)c1F [Compound 19, 4-[[6-(4-ethoxy-2,3-difluoro-phenoxy)-2-fluoro-3-(trifluoromethyl)benzoyl]amino]pyridine-2-carboxamide] | 0.057 µM
7 | NC(=O)c1cc(NC(=O)c2c(Oc3ccc(F)cc3Cl)ccc(C(F)(F)F)c2F)ccn1 [Compound 20, 4-[[6-(2-chloro-4-fluoro-phenoxy)-2-fluoro-3-(trifluoromethyl)benzoyl]amino]pyridine-2-carboxamide] | 0.048 µM
8 | COc1cc(Oc2ccc(C(F)(F)F)c(F)c2C(=O)Nc2ccnc(C(N)=O)c2)ccc1F [Compound 21, 4-[[2-fluoro-6-(4-fluoro-3-methoxy-phenoxy)-3-(trifluoromethyl)benzoyl]amino]pyridine-2-carboxamide] | 1 µM
9 | NC(=O)c1cc(NC(=O)c2c(Oc3ccccc3)ccc(C(F)(F)F)c2F)ccn1 [Compound 22, 4-[[2-fluoro-6-phenoxy-3-(trifluoromethyl)benzoyl]amino]pyridine-2-carboxamide] | 0.54 µM
10 | CCOc1ccc(Oc2ccc(C(F)(F)F)c(F)c2C(=O)Nc2ccnc(C(N)=O)c2)cc1 [Compound 23, 4-[[6-(4-ethoxyphenoxy)-2-fluoro-3-(trifluoromethyl)benzoyl]amino]pyridine-2-carboxamide] | 0.15 µM
11 | NC(=O)c1cc(NC(=O)c2c(Oc3ccc(F)c(F)c3)ccc(C(F)(F)F)c2F)ccn1 [Compound 24, 4-[[6-(3,4-difluorophenoxy)-2-fluoro-3-(trifluoromethyl)benzoyl]amino]pyridine-2-carboxamide] | 0.2 µM
12 | NC(=O)c1cc(NC(=O)c2c(Oc3ccc(F)c(Cl)c3)ccc(C(F)(F)F)c2F)ccn1 [Compound 25, 4-[[6-(3-chloro-4-fluoro-phenoxy)-2-fluoro-3-(trifluoromethyl)benzoyl]amino]pyridine-2-carboxamide] | 0.16 µM
13 | Cc1nc(C(F)(F)F)ccc1Oc1ccc(C(F)(F)F)c(F)c1C(=O)Nc1ccnc(C(N)=O)c1 [Compound 26, 4-[[2-fluoro-6-[[2-methyl-6-(trifluoromethyl)-3-pyridyl]oxy]-3-(trifluoromethyl)benzoyl]amino]pyridine-2-carboxamide] | 1.3 µM
14 | COc1ccc(Cl)cc1Oc1ccc(C(F)(F)F)c(F)c1C(=O)Nc1ccnc(C(N)=O)c1 [Compound 27, 4-[[6-(5-chloro-2-methoxy-phenoxy)-2-fluoro-3-(trifluoromethyl)benzoyl]amino]pyridine-2-carboxamide] | 0.17 µM
15 | CC(C)Oc1ccc(Oc2ccc(C(F)(F)F)c(F)c2C(=O)Nc2ccnc(C(N)=O)c2)cc1F [Compound 28, 4-[[2-fluoro-6-(3-fluoro-4-isopropoxy-phenoxy)-3-(trifluoromethyl)benzoyl]amino]pyridine-2-carboxamide] | 0.024 µM
16 | CCOc1ccc(Oc2ccc(C(F)(F)F)c(F)c2C(=O)Nc2ccnc(C(N)=O)c2)cc1F [Compound 29, 4-[[6-(4-ethoxy-3-fluoro-phenoxy)-2-fluoro-3-(trifluoromethyl)benzoyl]amino]pyridine-2-carboxamide] | 0.045 µM
17 | NC(=O)c1cc(NC(=O)c2c(Oc3ccc(F)c4c3OCC4)ccc(C(F)(F)F)c2F)ccn1 [Compound 30, 4-[[2-fluoro-6-[(4-fluoro-2,3-dihydrobenzofuran-7-yl)oxy]-3-(trifluoromethyl)benzoyl]amino]pyridine-2-carboxamide] | 0.043 µM
18 | COc1c(Oc2ccc(C(F)(F)F)c(F)c2C(=O)Nc2ccnc(C(N)=O)c2)ccc(F)c1F [Compound 31, 4-[[6-(3,4-difluoro-2-methoxy-phenoxy)-2-fluoro-3-(trifluoromethyl)benzoyl]amino]pyridine-2-carboxamide] | 0.009 µM
19 | Cc1cc(Oc2ccc(C(F)(F)F)c(F)c2C(=O)Nc2ccnc(C(N)=O)c2)ccc1F [Compound 32, 4-[[2-fluoro-6-(4-fluoro-3-methyl-phenoxy)-3-(trifluoromethyl)benzoyl]amino]pyridine-2-carboxamide] | 0.2 µM
20 | CC(C)Oc1ccc(Oc2ccc(C(F)(F)F)c(F)c2C(=O)Nc2ccnc(C(N)=O)c2)cc1Cl [Compound 33, 4-[[6-(3-chloro-4-isopropoxy-phenoxy)-2-fluoro-3-(trifluoromethyl)benzoyl]amino]pyridine-2-carboxamide] | 0.017 µM
21 | COc1c(F)cccc1Oc1ccc(C(F)(F)F)c(F)c1C(=O)Nc1ccnc(C(N)=O)c1 [Compound 34, 4-[[2-fluoro-6-(3-fluoro-2-methoxy-phenoxy)-3-(trifluoromethyl)benzoyl]amino]pyridine-2-carboxamide] | 0.12 µM
22 | NC(=O)c1cc(NC(=O)c2c(Oc3ccc(OC4CCCCC4)cc3)ccc(C(F)(F)F)c2F)ccn1 [Compound 35, 4-[[6-[4-(cyclohexoxy)phenoxy]-2-fluoro-3-(trifluoromethyl)benzoyl]amino]pyridine-2-carboxamide] | 0.51 µM
23 | CC(F)(F)c1cc(F)ccc1Oc1ccc(C(F)(F)F)c(F)c1C(=O)Nc1ccnc(C(N)=O)c1 [Compound 36, 4-[[6-[2-(1,1-difluoroethyl)-4-fluoro-phenoxy]-2-fluoro-3-(trifluoromethyl)benzoyl]amino]pyridine-2-carboxamide] | 0.18 µM
24 | CC(C)Oc1ccc(Oc2ccc(C(F)(F)F)c(F)c2C(=O)Nc2ccnc(C(N)=O)c2)cc1 [Compound 37, 4-[[2-fluoro-6-(4-isopropoxyphenoxy)-3-(trifluoromethyl)benzoyl]amino]pyridine-2-carboxamide] | 0.026 µM
25 | CCOc1ccc(Oc2ccc(C(F)(F)F)c(F)c2C(=O)Nc2ccnc(C(N)=O)c2)cc1Cl [Compound 38, 4-[[6-(3-chloro-4-ethoxy-phenoxy)-2-fluoro-3-(trifluoromethyl)benzoyl]amino]pyridine-2-carboxamide] | 0.043 µM
26 | NC(=O)c1cc(NC(=O)c2c(Oc3ccc(C(F)(F)F)nc3)ccc(C(F)(F)F)c2F)ccn1 [Compound 39, 4-[[2-fluoro-3-(trifluoromethyl)-6-[[6-(trifluoromethyl)-3-pyridyl]oxy]benzoyl]amino]pyridine-2-carboxamide] | > 3 µM

Source: patent US12441703B2, “Carboxamides as modulators of sodium channels” (VERTEX PHARMACEUTICALS INCORPORATED, priority 2019, dated 2025)
